Article PMC4906958 (Journal of the American Chemical Society, 2016)

What was measured:
MelB of E. coli (MelBEc) [1] = molecular target: T1, MelB of E. coli (MelBEc) (Escherichia coli, UniProt P02921); assay: Trp to D2G FRET, reversed by melibiose, in detergent extract; assay type: cell-based
[2] = molecular target: LeuT (leucine transporter) (Aquifex aeolicus, UniProt O67854); assay: radioligand binding by scintillation proximity assay
MelB of E. coli (MelBEc) [3] = molecular target: T1, MelB of E. coli (MelBEc); assay: melibiose reversal of Trp to D2G FRET in detergent extract; assay type: cell-based

T1 sequence (P02921 2-473): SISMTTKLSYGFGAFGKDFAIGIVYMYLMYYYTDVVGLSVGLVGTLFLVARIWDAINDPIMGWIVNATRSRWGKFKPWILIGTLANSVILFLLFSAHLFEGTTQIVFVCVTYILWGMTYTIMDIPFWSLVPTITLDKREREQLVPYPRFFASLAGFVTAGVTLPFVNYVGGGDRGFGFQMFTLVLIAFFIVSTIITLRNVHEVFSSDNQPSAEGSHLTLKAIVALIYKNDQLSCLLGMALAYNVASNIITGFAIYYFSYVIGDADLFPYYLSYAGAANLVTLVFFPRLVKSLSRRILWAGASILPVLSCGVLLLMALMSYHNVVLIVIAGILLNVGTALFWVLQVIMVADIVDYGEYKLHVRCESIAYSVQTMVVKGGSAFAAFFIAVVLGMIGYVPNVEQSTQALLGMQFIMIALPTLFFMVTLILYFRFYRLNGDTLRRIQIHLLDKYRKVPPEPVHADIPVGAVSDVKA

## CN(C)c1cccc2c(S(=O)(=O)NCCS[C@@H]3O[C@H](CO)[C@H](O)[C@H](O)[C@H]3O)cccc12 [D2G, dansyl-2-galactoside]
MelB of E. coli (MelBEc) [1]
  Trp to D2G FRET, reversed by melibiose, in detergent extract: Melibiose reversal of Trp to dansyl-2-galactoside (D^2G) FRET.

## CC(C)C[C@H](N)C(=O)O [leucine]
[2]
  radioligand binding by scintillation proximity assay (SPA): measuring the ability to bind a radio-labelled ligand ([^3H]-leucine) via scintillation proximity assay (SPA)

## OC[C@H]1O[C@H](OC[C@H]2OC(O)[C@H](O)[C@@H](O)[C@@H]2O)[C@H](O)[C@@H](O)[C@H]1O (stereo partly drawn) [melibiose]
MelB of E. coli (MelBEc) [3]
  melibiose reversal of Trp to D2G FRET in detergent extract: MelBEc in PSE-C11 maintained the melibiose binding, which is similar to that observed for the protein in MNG-3
